Data as given in patent publication US20250255874A1, “Methods for Treating Immune Thrombocytopenia By Administering (R)-2-[3-[4-Amino-3-(2-Fluoro-4-Phenoxy-Phenyl)Pyrazolo[3,4-D]Pyrimidin-1-YL]Piperidine-1-Carbonyl]-4-Methyl-4-[4-(Oxetan-3-YL)Piperazin-1-YL]Pent-2-Enentrile” (Principia Biopharma Inc., priority 2022, published 2025).

Test system: patients with relapsed/refractory immune thrombocytopenia
Assay: Phase 1/2 study (NCT03395210) Part A, safety;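 note: adverse events graded by NCI CTCAE version 4.0, with worsening of pre-existing conditions counted as adverse events, analysed in the Safety Population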
Conditions: Safety Population; N = 60

CC(C)(C=C(C#N)C(=O)N1CCC[C@@H](n2nc(-c3ccc(Oc4ccccc4)cc3F)c3c(N)ncnc32)C1)N1CCN(C2COC2)CC1 [rilzabrutinib, (R)-2-[3-[4-amino-3-(2-fluoro-4-phenoxy-phenyl)pyrazolo[3,4-d]pyrimidin-1-yl]piperidine-1-carbonyl]-4-methyl-4-[4-(oxetan-3-yl)piperazin-1-yl]pent-2-enenitrile]
Back pain, TEAEs Due to Any Cause, Grade 2: 1 (2) number of patients (percent)
Back pain, Treatment-Related TEAEs, Any grade: 1 (2) number of patients (percent)
Back pain, Treatment-Related TEAEs, Grade 2: 1 (2) number of patients (percent)
Conjunctival hemorrhage, TEAEs Due to Any Cause, Any grade: 5 (8) number of patients (percent)
Conjunctival hemorrhage, TEAEs Due to Any Cause, Grade 1: 5 (8) number of patients (percent)
Contusion, TEAEs Due to Any Cause, Any grade: 11 (18) number of patients (percent)
Contusion, TEAEs Due to Any Cause, Grade 1: 7 (12) number of patients (percent)
Contusion, TEAEs Due to Any Cause, Grade 2: 3 (5) number of patients (percent)
Contusion, TEAEs Due to Any Cause, Grade 3/4: 1 (2) number of patients (percent)
Contusion, Treatment-Related TEAEs, Any grade: 1 (2) number of patients (percent)
Contusion, Treatment-Related TEAEs, Grade 1: 1 (2) number of patients (percent)
Costochondritis, TEAEs Due to Any Cause, Any grade: 2 (3) number of patients (percent)
Costochondritis, TEAEs Due to Any Cause, Grade 1: 2 (3) number of patients (percent)
Cough, TEAEs Due to Any Cause, Any grade: 2 (3) number of patients (percent)
Cough, TEAEs Due to Any Cause, Grade 1: 2 (3) number of patients (percent)
Decreased appetite, TEAEs Due to Any Cause, Any grade: 1 (2) number of patients (percent)
Decreased appetite, TEAEs Due to Any Cause, Grade 1: 1 (2) number of patients (percent)
Decreased appetite, Treatment-Related TEAEs, Any grade: 1 (2) number of patients (percent)
Decreased appetite, Treatment-Related TEAEs, Grade 1: 1 (2) number of patients (percent)
Defecation urgency, TEAEs Due to Any Cause, Any grade: 1 (2) number of patients (percent)
Defecation urgency, TEAEs Due to Any Cause, Grade 2: 1 (2) number of patients (percent)
Defecation urgency, Treatment-Related TEAEs, Any grade: 1 (2) number of patients (percent)
Defecation urgency, Treatment-Related TEAEs, Grade 2: 1 (2) number of patients (percent)
Diarrhea, TEAEs Due to Any Cause, Any grade: 22 (37) number of patients (percent)
Diarrhea, TEAEs Due to Any Cause, Grade 1: 19 (32) number of patients (percent)
Diarrhea, TEAEs Due to Any Cause, Grade 2: 3 (5) number of patients (percent)
Diarrhea, Treatment-Related TEAEs, Any grade: 19 (32) number of patients (percent)
Diarrhea, Treatment-Related TEAEs, Grade 1: 16 (27) number of patients (percent)
Diarrhea, Treatment-Related TEAEs, Grade 2: 3 (5) number of patients (percent)
Dizziness, TEAEs Due to Any Cause, Any grade: 2 (3) number of patients (percent)
Dizziness, TEAEs Due to Any Cause, Grade 1: 2 (3) number of patients (percent)
Dyspepsia, TEAEs Due to Any Cause, Any grade: 4 (7) number of patients (percent)
Dyspepsia, TEAEs Due to Any Cause, Grade 1: 3 (5) number of patients (percent)
Dyspepsia, TEAEs Due to Any Cause, Grade 2: 1 (2) number of patients (percent)
Dyspepsia, Treatment-Related TEAEs, Any grade: 1 (2) number of patients (percent)
Dyspepsia, Treatment-Related TEAEs, Grade 1: 1 (2) number of patients (percent)
Dyspnea exertional, TEAEs Due to Any Cause, Any grade: 2 (3) number of patients (percent)
Dyspnea exertional, TEAEs Due to Any Cause, Grade 1: 2 (3) number of patients (percent)
Dyspnea, TEAEs Due to Any Cause, Any grade: 2 (3) number of patients (percent)
Dyspnea, TEAEs Due to Any Cause, Grade 1: 2 (3) number of patients (percent)
Edema, TEAEs Due to Any Cause, Any grade: 2 (3) number of patients (percent)
Edema, TEAEs Due to Any Cause, Grade 1: 2 (3) number of patients (percent)
Edema, Treatment-Related TEAEs, Any grade: 1 (2) number of patients (percent)
Edema, Treatment-Related TEAEs, Grade 1: 1 (2) number of patients (percent)
Epigastric discomfort, TEAEs Due to Any Cause, Any grade: 1 (2) number of patients (percent)
Epigastric discomfort, TEAEs Due to Any Cause, Grade 2: 1 (2) number of patients (percent)
Epigastric discomfort, Treatment-Related TEAEs, Any grade: 1 (2) number of patients (percent)
Epigastric discomfort, Treatment-Related TEAEs, Grade 2: 1 (2) number of patients (percent)
Epistaxis, TEAEs Due to Any Cause, Any grade: 2 (3) number of patients (percent)
Epistaxis, TEAEs Due to Any Cause, Grade 1: 2 (3) number of patients (percent)
Erysipelas, TEAEs Due to Any Cause, Any grade: 1 (2) number of patients (percent)
Erysipelas, TEAEs Due to Any Cause, Grade 2: 1 (2) number of patients (percent)
Erysipelas, Treatment-Related TEAEs, Any grade: 1 (2) number of patients (percent)
Erysipelas, Treatment-Related TEAEs, Grade 2: 1 (2) number of patients (percent)
Fatigue, TEAEs Due to Any Cause, Any grade: 12 (20) number of patients (percent)
Fatigue, TEAEs Due to Any Cause, Grade 1: 10 (17) number of patients (percent)
